Molecules are shown by their SMILES. Converted amounts (≈) assume the structure as drawn. Like-named read-outs stand apart in the source and are kept apart here. A value given as a limit tells only on which side of the number the result lay.

For orientation: MIC means the least concentration at which growth counts as inhibited.

Common to all, as to assay: Antibacterial activity (MIC), agar dilution
Assay type in all cases: cell-based

One test concerns Ps. aeruginosa GN3379*. Particulars: Pseudomonas aeruginosa, 20 h; Ps. aeruginosa GN3379, penicillinase-producing; 10^6 cells per ml; read-out: MIC. From the text: (§1) The amount of bacteria inoculated was 10^4 cells per plate (10^6 cells per ml).
(§2) * Penicillinase-producing bacteria

A further test deals with St. aureus F-137*. Particulars: Staphylococcus aureus, 20 h, St. aureus F-137, penicillinase-producing; 10^6 cells per ml; read-out: MIC.
Source text: as §1, §2

The test system of another test is Kl. pneumoniae Y-4*. The following applies: Klebsiella pneumoniae, 20 h, Kl. pneumoniae Y-4, penicillinase-producing, 10^6 cells per ml.
Source text: as §1, §2

The subject of another test is E. coli TK-3*. Particulars: Escherichia coli, 20 h, E. coli TK-3, penicillinase-producing; 10^6 cells per ml; read-out: MIC.
Source text: as §1, §2

Another test concerns Ps. aeruginosa GN918**. The following applies: Pseudomonas aeruginosa, Ps. aeruginosa GN918, cephalospolinase-producing, 10^6 cells per ml.
Source text: as §1
(§3) ** Cephalospolinase-producing bacteria

Another test relates to E. coli GN5482**. Particulars: Escherichia coli, 20 h; E. coli GN5482, cephalospolinase-producing; 10^6 cells per ml; read-out: MIC.
Source text: as §1, §3

The next test concerns Pro. vulgaris GN76**. The following applies: Proteus vulgaris, 20 h; Pro. vulgaris GN76, cephalospolinase-producing; 10^6 cells per ml; read-out: MIC.
Source text: as §1, §3

The next test concerns Ent. cloacae IID977. The following applies: Enterobacter cloacae, IID977, 20 h, Ent. cloacae IID977; 10^6 cells per ml; 37° C., 20 hours; read-out: MIC.
Source text: as §1

The subject of a further test is Pro. mirabilis T-111. The following applies: Proteus mirabilis, 37° C.
Source text: as §1

For another test, the system named is St. aureus FDA209P. Particulars: Staphylococcus aureus, FDA209P, 20 h, St. aureus FDA209P; 10^6 cells per ml; 37° C., 20 hours; read-out: MIC.
Source text: as §1

In a further test the test system is E. coli TK-111. The following applies: Escherichia coli, TK111, 20 h, E. coli TK-111; 10^6 cells per ml; 37° C., 20 hours; read-out: MIC.
Source text: as §1

For the next test, the system named is Pro. morganii T-216. Particulars: Morganella morganii, 37° C.
Source text: as §1

Another test concerns Pro. vulgaris GN3027. Particulars: Proteus vulgaris, GN3027, 20 h, Pro. vulgaris GN3027; 10^6 cells per ml; 37° C., 20 hours; read-out: MIC.
Source text: as §1

For the next test, the system named is Aci. antitratus A-6. Particulars: 20 h, Aci. antitratus A-6; 10^6 cells per ml; 37° C., 20 hours; read-out: MIC.
Source text: as §1

Another test has as its system Ps. aeruginosa S-68. The following applies: Pseudomonas aeruginosa.
Source text: as §1

A further test deals with E. coli NIHJ JC-2. The following applies: Escherichia coli, NIHJJC2, 20 h, E. coli NIHJ JC-2; 10^6 cells per ml; 37° C., 20 hours; read-out: MIC.
Source text: as §1

A further test deals with Kl. pneumoniae Y-50. Particulars: Klebsiella pneumoniae, Y50, 20 h, 10^6 cells per ml, 37° C., read-out: MIC.
Source text: as §1

A further test relates to Ps. aeruginosa IFO3445. The following applies: Pseudomonas aeruginosa.
Source text: as §1

The subject of another test is Kl. pneumoniae Y-41. Particulars: Klebsiella pneumoniae, Y41, 10^6 cells per ml, 37° C., 20 hours, read-out: MIC.
Source text: as §1

Setting [1] is: T111, 10^6 cells per ml, 20 hours, read-out: MIC.
Where [2] appears, read: T216, 10^6 cells per ml, 20 hours, read-out: MIC.
[3] abbreviates: S68, Ps. aeruginosa S-68, 10^6 cells per ml, 37° C., 20 hours, read-out: MIC.
Setting [4] is: Ps. aeruginosa IFO3445, 10^6 cells per ml, 37° C., 20 hours, read-out: MIC.

Regarding `Cc1cc(O)ccc1-n1cc(C(=O)O)c(=O)cc1-c1ccc(N(C)C)cc1`, the MIC is 3.13 mg/L (≈ 8.59 µM) in the test on Ps. aeruginosa GN3379*; at most 0.05 mg/L in the test on St. aureus F-137*; 0.78 mg/L (≈ 2.14 µM) in the test on Kl. pneumoniae Y-4*; 0.2 mg/L (≈ 0.549 µM) with E. coli TK-3*; 1.56 mg/L (≈ 4.28 µM) in the test with Ps. aeruginosa GN918** (20 h, read-out: MIC); at most 0.05 mg/L in the test on E. coli GN5482**. The MIC was 0.39 mg/L (≈ 1.07 µM) in the test on Pro. vulgaris GN76**; 0.39 mg/L (≈ 1.07 µM) in the test with Ent. cloacae IID977; 0.78 mg/L (≈ 2.14 µM) with Pro. mirabilis T-111 (setting [1]); at most 0.05 mg/L in the test on St. aureus FDA209P; at most 0.05 mg/L in the test on E. coli TK-111; 0.78 mg/L (≈ 2.14 µM) in the test with Pro. morganii T-216 (setting [2]). In addition, the MIC in the test on Pro. vulgaris GN3027 was determined as 0.1 mg/L (≈ 0.274 µM); in the test with Aci. antitratus A-6, 0.1 mg/L (≈ 0.274 µM); with Ps. aeruginosa S-68 (setting [3]), 3.13 mg/L (≈ 8.59 µM); in the test with E. coli NIHJ JC-2, 0.1 mg/L (≈ 0.274 µM); in the test on Kl. pneumoniae Y-50, 0.2 mg/L (≈ 0.549 µM); in the test on Ps. aeruginosa IFO3445 (setting [4]), 3.13 mg/L (≈ 8.59 µM). Also, in the test on Kl. pneumoniae Y-41, the MIC was found to be 0.78 mg/L (≈ 2.14 µM).

For the compound `CC(=O)Oc1ccc(-n2cc(C(=O)O)c(=O)cc2-c2ccc(-c3cccs3)cc2)cc1`, the MIC is 3.13 mg/L (≈ 7.25 µM) in the test on Ps. aeruginosa GN3379*; at most 0.05 mg/L in the test with St. aureus F-137*; 1.56 mg/L (≈ 3.62 µM) with Kl. pneumoniae Y-4* (read-out: MIC); 0.39 mg/L (≈ 0.904 µM) in the test with E. coli TK-3*; 1.56 mg/L (≈ 3.62 µM) in the test on Ps. aeruginosa GN918** (GN918, 20 h); at most 0.05 mg/L in the test with E. coli GN5482**. Moreover, the MIC was 0.39 mg/L (≈ 0.904 µM) with Pro. vulgaris GN76**; 0.39 mg/L (≈ 0.904 µM) in the test with Ent. cloacae IID977; 0.39 mg/L (≈ 0.904 µM) with Pro. mirabilis T-111 (setting [1]); at most 0.05 mg/L in the test with St. aureus FDA209P; at most 0.05 mg/L in the test on E. coli TK-111; 0.39 mg/L (≈ 0.904 µM) in the test with Pro. morganii T-216 (setting [2]). Also, the MIC in the test with Pro. vulgaris GN3027 is at most 0.05 mg/L; in the test on Aci. antitratus A-6 it was at most 0.05 mg/L; in the test with Ps. aeruginosa S-68 (S68, 20 h), 1.56 mg/L (≈ 3.62 µM); in the test on E. coli NIHJ JC-2, 0.2 mg/L (≈ 0.464 µM); with Kl. pneumoniae Y-50 it was 0.39 mg/L (≈ 0.904 µM); in the test on Ps. aeruginosa IFO3445 (IFO3445, 20 h), 1.56 mg/L (≈ 3.62 µM). The MIC in the test on Kl. pneumoniae Y-41 was determined as 0.78 mg/L (≈ 1.81 µM).

Consider `CC(=O)Oc1ccc(-n2cc(C(=O)O)c(=O)cc2-c2ccc(N(C)C)cc2)c(C)c1`, for which the MIC was 6.25 mg/L (≈ 15.4 µM) in the test on Ps. aeruginosa GN3379*; at most 0.05 mg/L in the test on St. aureus F-137*; 1.56 mg/L (≈ 3.84 µM) in the test with Kl. pneumoniae Y-4* (read-out: MIC); 0.39 mg/L (≈ 0.96 µM) with E. coli TK-3*; 1.56 mg/L (≈ 3.84 µM) in the test on Ps. aeruginosa GN918** (GN918, 20 h); at most 0.05 mg/L in the test on E. coli GN5482**. Besides, the MIC with Pro. vulgaris GN76** is 0.39 mg/L (≈ 0.96 µM); in the test on Ent. cloacae IID977, 0.78 mg/L (≈ 1.92 µM); in the test on Pro. mirabilis T-111 (setting [1]) it was 0.78 mg/L (≈ 1.92 µM); with St. aureus FDA209P, at most 0.05 mg/L; with E. coli TK-111, at most 0.05 mg/L; against Pro. morganii T-216 (T216, 20 h, 10^6 cells per ml), 1.56 mg/L (≈ 3.84 µM). In addition, the MIC in the test with Pro. vulgaris GN3027 was 0.39 mg/L (≈ 0.96 µM); in the test on Aci. antitratus A-6 it was at most 0.05 mg/L; in the test with Ps. aeruginosa S-68 (setting [3]) it was 3.13 mg/L (≈ 7.7 µM); in the test on E. coli NIHJ JC-2 it was 0.2 mg/L (≈ 0.492 µM); in the test on Kl. pneumoniae Y-50 it was 0.39 mg/L (≈ 0.96 µM); in the test with Ps. aeruginosa IFO3445 (setting [4]), 6.25 mg/L (≈ 15.4 µM). Also, the MIC in the test on Kl. pneumoniae Y-41 is 1.56 mg/L (≈ 3.84 µM).

Take `O=C(O)c1cn(-c2ccc(O)cc2)c(-c2ccc(-c3ccc(Cl)s3)cc2)cc1=O`: the MIC with Ps. aeruginosa GN3379* is 3.13 mg/L (≈ 7.38 µM); in the test with St. aureus F-137* it was at most 0.05 mg/L; in the test with Kl. pneumoniae Y-4* (read-out: MIC) it was 1.56 mg/L (≈ 3.68 µM); in the test with E. coli TK-3*, 0.78 mg/L (≈ 1.84 µM); with Ps. aeruginosa GN918** (20 h, read-out: MIC) it was 0.78 mg/L (≈ 1.84 µM); with E. coli GN5482**, at most 0.05 mg/L. In addition, the MIC in the test on Pro. vulgaris GN76** was 0.39 mg/L (≈ 0.92 µM); in the test with Ent. cloacae IID977, 0.78 mg/L (≈ 1.84 µM); against Pro. mirabilis T-111 (T111, 20 h, 10^6 cells per ml) it was 1.56 mg/L (≈ 3.68 µM); with St. aureus FDA209P it was at most 0.05 mg/L; in the test with E. coli TK-111, 0.1 mg/L (≈ 0.236 µM); in the test on Pro. morganii T-216 (setting [2]), 0.78 mg/L (≈ 1.84 µM). In addition, the MIC with Pro. vulgaris GN3027 was at most 0.1 mg/L; in the test on Aci. antitratus A-6, 0.1 mg/L (≈ 0.236 µM); in the test with Ps. aeruginosa S-68 (setting [3]) it was 3.13 mg/L (≈ 7.38 µM); in the test with E. coli NIHJ JC-2 it was 0.2 mg/L (≈ 0.472 µM); in the test with Kl. pneumoniae Y-50 it was 0.39 mg/L (≈ 0.92 µM); in the test with Ps. aeruginosa IFO3445 (setting [4]) it was 3.13 mg/L (≈ 7.38 µM). Besides, in the test with Kl. pneumoniae Y-41, the MIC amounted to 1.56 mg/L (≈ 3.68 µM).

The values above are taken from US4698352A, “4-oxo-1,4-dihydronicotinic acid derivatives, salts thereof, and antibacterial agents containing the same” (Toyama Chemical Co., Ltd., priority 1982, dated 1987).
